{"source": "patent US20220133629A1", "about": "“FORMULATIONS FOR TREATMENT OF DRY EYE DISEASE” (Aldeyra Therapeutics, Inc., priority 2018, published 2022)", "system": "patients with dry eye disease", "experiment": "Phase 2b: overall efficacy on signs and symptoms", "assay_type": "in vivo, human", "description": "In a Phase 2b clinical trial, the efficacy of Reproxalap Ophthalmic Solutions (0.25% and 0.1%) were evaluated in patients with dry eye disease (see the details in Example 1). […] The efficacy profile of Reproxalap Ophthalmic Solutions was evident as early as two weeks following treatment initiation. […] Efficacy Analysis • Evaluated baseline to weeks 2, 4, 8 and 12 change scores with reproxalap on DED sign and symptom endpoints (both pre-CAE and CAE endpoints). Each endpoint was analyzed at a two-sided alpha level of 0.05, and the overall type I error was not controlled for in this investigative study. • Evaluated effect size of baseline to weeks 2, 4, 8 and 12 change scores of reproxalap vs vehicle on DED sign and symptom endpoints (both pre-CAE and CAE endpoints) to confirm the endpoint selection for primary outcome parameters and sample size for Phase 3 studies with reproxalap. • Sub-group analyses on effect size of baseline to weeks 2, 4, 8 and 12 change scores of reproxalap vs vehicle on DED sign and symptom endpoints (both pre-CAE and CAE endpoints) [Subgroups were prospectively detailed in the Statistical Analysis Plan (SAP)].", "data": [{"smiles": "CC(C)(O)c1nc2ccc(Cl)cc2cc1N", "note": "[Reproxalap, reproxalap]", "values": [{"measurement": "Dose response between 0.1% and 0.25% dose strengths", "value": "dose response"}]}]}
